Laboratory results reported in publication PMC9655245, “Dual Inhibitors of AChE and BACE-1 for Reducing Aβ in Alzheimer’s Disease: From In Silico to In Vivo” (International Journal of Molecular Sciences, 2022).

Key:
Assay type in all cases: biochemical
[1] = molecular target: T1, AChE (acetylcholinesterase) (Homo sapiens, UniProt P22303); test: Ellman assay, absorbance at […] nm, 7-point dose response
T1 construct: recombinant, produced in stably expressing CHO-K1 cell line

[2] = molecular target: T2, BACE-1 (β-secretase, beta-site APP cleaving enzyme 1) (Homo sapiens, UniProt P56817); test: fluorogenic Mca/Dnp peptide cleavage, single point
T2 construct: gene BACE1; commercial recombinant enzyme (R&D Systems 931-AS)
T2 sequence (P56817 46-457 limits assumed): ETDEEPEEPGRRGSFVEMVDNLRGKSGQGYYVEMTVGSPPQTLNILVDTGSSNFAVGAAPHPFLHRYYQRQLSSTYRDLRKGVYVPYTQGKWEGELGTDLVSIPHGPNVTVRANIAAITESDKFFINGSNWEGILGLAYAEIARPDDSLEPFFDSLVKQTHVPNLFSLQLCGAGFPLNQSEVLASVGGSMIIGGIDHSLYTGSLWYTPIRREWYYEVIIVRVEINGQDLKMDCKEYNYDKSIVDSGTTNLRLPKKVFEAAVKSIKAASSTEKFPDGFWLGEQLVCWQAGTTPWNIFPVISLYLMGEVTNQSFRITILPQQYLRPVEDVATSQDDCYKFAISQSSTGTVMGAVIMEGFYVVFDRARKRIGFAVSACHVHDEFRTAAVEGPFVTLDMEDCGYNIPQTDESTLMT
Description: fluorogenic Mca/Dnp peptide cleavage, single point on BACE-1 (β-secretase, beta-site APP cleaving enzyme 1)

[3] = molecular target: T2, BACE-1 (β-secretase, beta-site APP cleaving enzyme 1); test: fluorogenic Mca/Dnp peptide cleavage, 5-point dose response
[4] = molecular target: T1, AChE (acetylcholinesterase); test: Ellman assay, absorbance at […] nm, single point

T1 sequence (P22303 32-614): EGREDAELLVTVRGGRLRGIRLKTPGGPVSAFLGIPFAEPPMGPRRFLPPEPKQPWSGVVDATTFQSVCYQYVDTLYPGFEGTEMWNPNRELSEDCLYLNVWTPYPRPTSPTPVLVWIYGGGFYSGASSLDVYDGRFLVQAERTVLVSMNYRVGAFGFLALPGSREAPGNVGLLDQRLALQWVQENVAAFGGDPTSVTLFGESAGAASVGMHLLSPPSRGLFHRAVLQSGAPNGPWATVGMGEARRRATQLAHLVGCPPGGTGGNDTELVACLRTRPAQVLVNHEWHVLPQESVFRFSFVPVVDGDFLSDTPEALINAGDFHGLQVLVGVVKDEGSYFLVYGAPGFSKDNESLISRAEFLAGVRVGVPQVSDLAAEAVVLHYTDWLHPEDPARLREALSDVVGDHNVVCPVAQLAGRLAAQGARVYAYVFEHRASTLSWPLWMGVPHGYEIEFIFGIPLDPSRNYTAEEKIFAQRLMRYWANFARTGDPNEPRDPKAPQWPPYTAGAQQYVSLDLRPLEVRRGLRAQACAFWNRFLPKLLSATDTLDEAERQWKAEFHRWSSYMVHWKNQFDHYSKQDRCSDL

SMILES | IC50 [1] | inhibition at 100 µM [2] | IC50 [3] | inhibition at 10 µM [4]
Cc1ccc(Cn2c(=O)c(N3CCC(C(=O)NCCN4CCCCC4C)CC3)nc3ccccc32)cc1 (stereo not drawn) [compound 1, C700-2595] | 8.2 µM | 19% |  | 
CCn1c(=O)c(N2CCCC(C(=O)NC3CCN(Cc4ccccc4)CC3)C2)nc2ccccc21 (stereo not drawn) [compound 2, F681-0222] | 4.4 µM |  | 63 µM | 
Cn1c(=O)c(N2CCCC(C(=O)NC3CCN(Cc4ccccc4)CC3)C2)nc2ccccc21 (stereo not drawn) [compound 3, F681-0412] | 6.7 µM |  | 55 µM | 
CCN1CCCC1CNC(=O)CCc1nnc2n(CCc3ccccc3)c(=O)c3ccccc3n12 (stereo not drawn) [compound 4, C741-0335] | 9.7 µM | 6% |  | 
COc1cccc(N2CC(C(=O)Nc3ccccc3CN(C)C3CCCCC3)CC2=O)c1 (stereo not drawn) [compound 5, T6769894] |  |  | 60 µM | 19%
CCOc1cccc(C2CC(c3ccc(C)cc3)=NC3(CCN(C(C)=O)CC3)N2)c1O (stereo not drawn) [compound 6, Z274-0419] |  |  | 150 µM | -12%
